Key:
Settings in all cases: 48 h
P12-Ichikawa [1] = assay: cell viability relative to DMSO control; higher = less cytotoxic
Summary of the method: (§1)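 Before seeding, each leukemia line was adapted for at least four passages in each medium. NOMO1 or SEM cells (500 cells/well) and P12-Ichikawa cells (1000 cells/well) went into 1536-well plates at 5 μl, then received library compounds in DMSO by pin dosing across 11 threefold concentrations, 47 μM to 0.79 nM. Readout was CellTiter-Glo One luminescence after 48 h at 37°C, and viability is given as a per-plate percentage of DMSO wells, with cell-free wells as background.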

SEM cells [2] = assay: as above
Summary of the method: as §1

NOMO1 = assay: AUC of viability dose-response curve (% viability x log10 dose units); higher = less sensitive
Summary of the method: (§2)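 Leukemia cells adapted to each medium were seeded in 1536-well plates (500 or 1000 cells/well). They were dosed with library compounds in DMSO at 11 threefold doses, 47 μM to 0.79 nM, for 48 h at 37°C. CellTiter-Glo One luminescence was normalised per plate to DMSO and cell-free wells. Area under the curve was integrated by trapezoidal rule over log10 doses on a four-parameter log-logistic fit; curves exceeding full viability were scaled and curves failing quality control removed.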

P12-Ichikawa [3] = assay: as above
Summary of the method: as §2

SEM cells [4] = assay: as above
Summary of the method: as §2

[5] = RPMI 5 mM glucose + 10% FBS, 46.1 µM
[6] = RPMI 5 mM glucose + 10% dialyzed FBS, 0.000781 µM
[7] = RPMI 5 mM glucose + 10% dialyzed FBS, 0.00234 µM
[8] = RPMI 5 mM glucose + 10% dialyzed FBS, 0.00702 µM
[9] = RPMI 5 mM glucose + 10% dialyzed FBS, 0.0211 µM
[10] = RPMI 5 mM glucose + 10% dialyzed FBS, 0.0632 µM
[11] = RPMI 5 mM glucose + 10% dialyzed FBS, 0.19 µM
[12] = RPMI 5 mM glucose + 10% dialyzed FBS, 0.569 µM
[13] = RPMI 5 mM glucose + 10% dialyzed FBS, 1.71 µM
[14] = RPMI 5 mM glucose + 10% dialyzed FBS, 5.12 µM
[15] = RPMI 5 mM glucose + 10% dialyzed FBS, 15.4 µM
[16] = RPMI 5 mM glucose + 10% dialyzed FBS, 46.1 µM
[17] = RPMI 5 mM glucose + 10% dialyzed FBS

SMILES: Cc1cn2c(-c3cn[nH]c3)cnc2c(Nc2ccc(C(=O)N3CCNCC3)cc2F)n1
- cell viability (P12-Ichikawa [1]; [5]): 49.2%
- cell viability (P12-Ichikawa [1]; [6]): 104%
- cell viability (P12-Ichikawa [1]; [7]): 105%
- cell viability (P12-Ichikawa [1]; [8]): 102%
- cell viability (P12-Ichikawa [1]; [9]): 99.5%
- cell viability (P12-Ichikawa [1]; [10]): 105%
- cell viability (P12-Ichikawa [1]; [11]): 107%
- cell viability (P12-Ichikawa [1]; [12]): 109%
- cell viability (P12-Ichikawa [1]; [13]): 95.6%
- cell viability (P12-Ichikawa [1]; [14]): 94.4%
- cell viability (P12-Ichikawa [1]; [15]): 65.3%
- cell viability (P12-Ichikawa [1]; [16]): 42.5%
- cell viability (SEM cells [2]; HPLM + 10% dialyzed FBS, 0.000781 µM): 105%
- cell viability (SEM cells [2]; HPLM + 10% dialyzed FBS, 0.00234 µM): 106%
- cell viability (SEM cells [2]; HPLM + 10% dialyzed FBS, 0.00702 µM): 119%
- cell viability (SEM cells [2]; HPLM + 10% dialyzed FBS, 0.0211 µM): 103%
- cell viability (SEM cells [2]; HPLM + 10% dialyzed FBS, 0.0632 µM): 109%
- cell viability (SEM cells [2]; HPLM + 10% dialyzed FBS, 0.19 µM): 105%
- cell viability (SEM cells [2]; HPLM + 10% dialyzed FBS, 0.569 µM): 107%
- cell viability (SEM cells [2]; HPLM + 10% dialyzed FBS, 1.71 µM): 108%
- cell viability (SEM cells [2]; HPLM + 10% dialyzed FBS, 5.12 µM): 87.8%
- cell viability (SEM cells [2]; HPLM + 10% dialyzed FBS, 15.4 µM): 45.9%
- cell viability (SEM cells [2]; HPLM + 10% dialyzed FBS, 46.1 µM): 17%
- cell viability (SEM cells [2]; RPMI 5 mM glucose + 10% FBS, 0.000781 µM): 98.7%
- cell viability (SEM cells [2]; RPMI 5 mM glucose + 10% FBS, 0.00234 µM): 99.8%
- cell viability (SEM cells [2]; RPMI 5 mM glucose + 10% FBS, 0.00702 µM): 107%
- cell viability (SEM cells [2]; RPMI 5 mM glucose + 10% FBS, 0.0211 µM): 98.5%
- cell viability (SEM cells [2]; RPMI 5 mM glucose + 10% FBS, 0.0632 µM): 112%
- cell viability (SEM cells [2]; RPMI 5 mM glucose + 10% FBS, 0.19 µM): 114%
- cell viability (SEM cells [2]; RPMI 5 mM glucose + 10% FBS, 0.569 µM): 96.7%
- cell viability (SEM cells [2]; RPMI 5 mM glucose + 10% FBS, 1.71 µM): 109%
- cell viability (SEM cells [2]; RPMI 5 mM glucose + 10% FBS, 5.12 µM): 90.6%
- cell viability (SEM cells [2]; RPMI 5 mM glucose + 10% FBS, 15.4 µM): 48.3%
- cell viability (SEM cells [2]; [5]): 11.8%
- cell viability (SEM cells [2]; [6]): 107%
- cell viability (SEM cells [2]; [7]): 104%
- cell viability (SEM cells [2]; [8]): 105%
- cell viability (SEM cells [2]; [9]): 99.5%
- cell viability (SEM cells [2]; [10]): 122%
- cell viability (SEM cells [2]; [11]): 102%
- cell viability (SEM cells [2]; [12]): 114%
- cell viability (SEM cells [2]; [13]): 98.2%
- cell viability (SEM cells [2]; [14]): 91.7%
- cell viability (SEM cells [2]; [15]): 49.9%
- cell viability (SEM cells [2]; [16]): 9.99%
- AUC of viability dose-response curve (NOMO1; HPLM + 10% dialyzed FBS): 430
- AUC of viability dose-response curve (NOMO1; RPMI 5 mM glucose + 10% FBS): 417
- AUC of viability dose-response curve (NOMO1; [17]): 409
- AUC of viability dose-response curve (P12-Ichikawa [3]; HPLM + 10% dialyzed FBS): 444
- AUC of viability dose-response curve (P12-Ichikawa [3]; RPMI 5 mM glucose + 10% FBS): 440
- AUC of viability dose-response curve (P12-Ichikawa [3]; [17]): 439
- AUC of viability dose-response curve (SEM cells [4]; HPLM + 10% dialyzed FBS): 419
- AUC of viability dose-response curve (SEM cells [4]; RPMI 5 mM glucose + 10% FBS): 424
- AUC of viability dose-response curve (SEM cells [4]; [17]): 421
